The source of these data is patent publication US6610712B2, “Aryloxy piperidinyl derivatives for the treatment of depression” (Wyeth, priority 2000, dated 2003).

One data set deals with Serotonin Transporter (Homo sapiens, UniProt P31645). In words: Serotonin transporter binding, [3H]paroxetine. Conditions: radioligand [3H]paroxetine.
For a further data set, the target named is T1, 5-HT1A (Homo sapiens, UniProt P08908).
T1 sequence (P08908 1-422): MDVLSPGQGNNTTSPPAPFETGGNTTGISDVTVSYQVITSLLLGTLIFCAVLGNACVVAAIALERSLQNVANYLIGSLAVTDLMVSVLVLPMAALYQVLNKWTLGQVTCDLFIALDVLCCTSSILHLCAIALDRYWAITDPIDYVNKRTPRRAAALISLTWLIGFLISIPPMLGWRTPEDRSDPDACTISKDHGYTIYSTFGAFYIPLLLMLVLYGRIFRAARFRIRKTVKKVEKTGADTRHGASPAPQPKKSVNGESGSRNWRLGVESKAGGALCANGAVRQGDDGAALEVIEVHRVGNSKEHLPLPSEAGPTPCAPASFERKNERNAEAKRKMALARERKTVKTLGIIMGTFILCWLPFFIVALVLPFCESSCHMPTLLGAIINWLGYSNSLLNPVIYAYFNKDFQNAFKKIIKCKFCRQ
In words: 5-HT1A receptor binding, [3H]DPAT. More on the design: 5-HT1A [3H]DPAT, % at single concentration: dose or concentration left out as unconfirmed. The settings on record: radioligand [3H]DPAT.

Structures can show the parent of a compound that is named as a salt.

Chain of Serotonin Transporter (P31645 whole entry): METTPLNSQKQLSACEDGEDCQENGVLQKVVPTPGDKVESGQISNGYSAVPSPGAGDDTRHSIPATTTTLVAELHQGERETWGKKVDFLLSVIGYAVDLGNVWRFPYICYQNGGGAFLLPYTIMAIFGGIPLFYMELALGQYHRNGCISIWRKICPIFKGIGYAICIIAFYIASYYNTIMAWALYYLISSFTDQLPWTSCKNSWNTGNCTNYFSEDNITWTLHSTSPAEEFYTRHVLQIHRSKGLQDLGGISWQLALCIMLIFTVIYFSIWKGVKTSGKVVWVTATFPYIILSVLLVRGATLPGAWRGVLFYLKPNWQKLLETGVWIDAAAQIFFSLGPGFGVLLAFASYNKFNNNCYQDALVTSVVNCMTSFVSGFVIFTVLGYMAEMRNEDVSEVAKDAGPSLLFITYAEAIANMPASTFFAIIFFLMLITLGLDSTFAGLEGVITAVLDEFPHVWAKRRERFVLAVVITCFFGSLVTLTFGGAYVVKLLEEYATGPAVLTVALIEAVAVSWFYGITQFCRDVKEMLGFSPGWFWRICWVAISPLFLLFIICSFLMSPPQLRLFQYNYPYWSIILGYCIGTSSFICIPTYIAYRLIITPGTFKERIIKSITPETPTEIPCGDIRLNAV

Consider `COc1ccccc1OCCN1CCC(Cc2c[nH]c3ccc(F)cc23)CC1` (as salt: oxalate) (hydrate or solvate) [Example 1, 5-Fluoro-3-{1-[2-(2-methoxyphenoxy)ethyl]-piperidin-4-ylmethyl}-1H-indole], for which the melting point – broadly, the temperature of the solid-liquid transition – stood at 91 °C.
On the same count and under the same terms, the same measure for `Fc1ccc2[nH]cc(CC3CCN(CCOc4ccc5c(c4)CCC5)CC3)c2c1` (as salt: hydrochloride) (hydrate or solvate) [Example 3, 5-Fluoro-3-{1-[2-(indan-5-yloxy)-ethyl]-piperidin-4-ylmethyl}-1H-indole]: 150 to 152 °C.
As for `Fc1ccc2[nH]cc(CC3CCN(CCOc4cccc5c4OCCO5)CC3)c2c1` [Example 2, 5-Fluoro-3-{1-[2-(2,3-dihydrobenzo[1,4]dioxin-5-yloxy)ethyl]-piperidin-4-ylmethyl}-1H-indole], the Ki (in general, the equilibrium dissociation constant of an inhibitor or competing ligand from its target) at Serotonin Transporter turned out to be 0.011 nM; at 5-HT1A, 168 nM.
In turn, `Fc1ccc2[nH]cc(C3=CCN(CCOc4cccc5c4OCCO5)CC3)c2c1` (as salt: oxalate) [Example 5, 5-Fluoro-3-{1-[2-(2,3-dihydro-benzo[1,4]dioxan-5-yloxy)-ethyl]-1,2,3,6-tetrahydro-pyridin-4-yl}-1H-indole] returned a melting point of 195 to 198 °C.
Turning to “6-Fluoro-3-{1-[2-(2,3-dihydro-benzo[1,4]dioxan-5-yloxy)-ethyl]-1,2,3,6-tetrahydro-pyridin-4-yl}-1H-indole [Example 6]”, the results for the Ki on Serotonin Transporter and at 5-HT1A were 0.15 nM and 83.7 nM, respectively.
`C1=C(c2c[nH]c3ccccc23)CCN(CCOc2cccc3c2OCCO3)C1` (as salt: oxalate) [Example 4, 3-{1-[2-(2,3-Dihydro-benzo[1,4]dioxan-5-yloxy)-ethyl]-1,2,3,6-tetrahydro-pyridin-4-yl}-1H-indole] gave a melting point of 85 to 88 °C.
Take `COc1ccccc1OCCN1CCC(Cc2c[nH]c3ccc(F)cc23)CC1` [Example 1, 5-Fluoro-3-{1-[2-(2-methoxyphenoxy)ethyl]-piperidin-4-ylmethyl}-1H-indole]: the figures for the Ki on Serotonin Transporter and at 5-HT1A were 0.35 nM and 180 nM, respectively.
As for `Fc1ccc2[nH]cc(C3=CCN(CCOc4cccc5c4OCCO5)CC3)c2c1` [Example 5, 5-Fluoro-3-{1-[2-(2,3-dihydro-benzo[1,4]dioxan-5-yloxy)-ethyl]-1,2,3,6-tetrahydro-pyridin-4-yl}-1H-indole], the values for the Ki at Serotonin Transporter and on 5-HT1A were 1.17 nM and 83.3 nM, respectively.
In turn, `Fc1ccc2[nH]cc(CC3CCN(CCOc4ccc5c(c4)CCC5)CC3)c2c1` [Example 3, 5-Fluoro-3-{1-[2-(indan-5-yloxy)-ethyl]-piperidin-4-ylmethyl}-1H-indole] showed a Ki at Serotonin Transporter of 2.24 nM. Besides, the “5-HT1A [3H]DPAT, % at single concentration” value at 5-HT1A is reported as 0% @ 0.1 M.
The molecule `Fc1ccc2[nH]cc(CC3CCN(CCOc4cccc5c4OCCO5)CC3)c2c1` (as salt: fumarate) (hydrate or solvate) [Example 2, 5-Fluoro-3-{1-[2-(2,3-dihydrobenzo[1,4]dioxin-5-yloxy)ethyl]-piperidin-4-ylmethyl}-1H-indole] yielded a melting point of 157 to 159 °C.
In the case of `C1=C(c2c[nH]c3ccccc23)CCN(CCOc2cccc3c2OCCO3)C1` [Example 4, 3-{1-[2-(2,3-Dihydro-benzo[1,4]dioxan-5-yloxy)-ethyl]-1,2,3,6-tetrahydro-pyridin-4-yl}-1H-indole], the Ki at Serotonin Transporter was found to be 0.17 nM; on 5-HT1A, 78.3 nM.
